In ChEMBL document CHEMBL5120971, “Network Pharmacology Research and Dual-omic Analyses Reveal the Molecular Mechanism of Natural Product Nodosin Inhibiting Muscle-Invasive Bladder Cancer in Vitro and in Vivo” (J Nat Prod, 2022):
The source made the active and inactive calls. The calls are words filed in the database; no cut-off is given here.

Columns and labels:
T-24 [1] = experiment: Antimigratory activity against human T24 cells assessed as down regulation of NEXN expression at 6 uM measured after 24 to 30 hrs by proteomic analysis; assay type: functional, cell-based; settings: time 24-30 hrs
T-24 [2] = experiment: Induction of autophagy in human T24 cells assessed as up regulation of SQSTM1 expression at 6 uM measured after 24 to 30 hrs by proteomic analysis; assay type: functional, cell-based; settings: time 24-30 hrs
T-24 [3] = experiment: Induction of apoptosis in human T24 cells assessed as necrotic cells at 8 uM measured after 48 hrs by Annexin V-FITC/propidium iodide staining based flow cytometry (reference value: 0.57%); assay type: functional
T-24 [4] = experiment: Antimigratory activity against human T24 cells assessed as down regulation of CFL2 expression at 6 uM measured after 24 to 30 hrs by proteomic analysis; assay type: functional, cell-based; settings: time 24-30 hrs
T-24 [5] = experiment: Effect on RPA2 expression in human T24 cells at 6 uM measured after 24 to 30 hrs by proteomic analysis; assay type: functional, cell-based; settings: time 24-30 hrs
T-24 [6] = experiment: Effect on RNF169 expression in human T24 cells at 6 uM measured after 24 to 30 hrs by proteomic analysis; assay type: functional, cell-based; settings: time 24-30 hrs
T-24 [7] = experiment: Induction of apoptosis in human T24 cells assessed as effect on SQSTM1 expression at 6 uM measured after 24 to 30 hrs by proteomic analysis; assay type: functional, cell-based; settings: time 24-30 hrs
T-24 [8] = experiment: Cytotoxicity against human T24 cells assessed as reduction in cell growth by CCK8 assay; assay type: functional, cell-based
T-24 [9] = experiment: Induction of mitochondrial membrane disruption in human T24 cells at 4 to 8 uM measured after 48 hrs by transmission electron microscopy; assay type: cell-based; settings: dose 4-8 µM
T-24 [10] = experiment: Up regulation of FTL gene expression in human T24 cells at 6 uM measured after 12 to 18 hrs by transcriptome analysis; assay type: functional, cell-based; settings: time 12-18 hrs
T-24 [11] = experiment: Induction of apoptosis in human T24 cells assessed as up regulation of SQSTM1 expression at 6 to 12 uM measured after 24 hrs by immunofluorescence analysis; assay type: functional, cell-based; settings: dose 6-12 µM
T-24 [12] = experiment: Induction of cell membrane disruption in human T24 cells at 4 to 20 uM measured after 24 hrs by Dio/Hoechst 33342 staining based fluorescence assay; settings: dose 4-20 µM
T-24 [13] = experiment: Induction of apoptosis in human T24 cells assessed as up regulation of MAP1LC3B expression at 6 to 12 uM measured after 24 to 30 hrs by Western blot analysis; assay type: functional, cell-based; settings: dose 6-12 µM, time 24-30 hrs
UMUC3 = experiment: Cytotoxicity against human UMUC3 cells assessed as reduction in cell growth at 4 uM by CCK8 assay; assay type: functional, cell-based; settings: time 24-72 hrs, TDE = time-dependent effect
T-24 [14] = experiment: Cytotoxicity against human T24 cells assessed as reduction in cell growth measured after 24 hrs by live/dead staining based fluorescence assay; assay type: functional; settings: dose 4-10 µM, DDE = dose-dependent effect
T-24 [15] = experiment: Antimigratory activity against human T24 cells assessed as reduction in F-actin expression at 8 to 20 uM measured after 24 hrs by actin-tracker red-594/DAPI staining based fluorescence assay; assay type: functional, cell-based; settings: dose 8-20 µM
T-24 [16] = experiment: Up regulation of AIFM2 gene expression in human T24 cells at 6 uM measured after 12 to 18 hrs by transcriptome analysis; assay type: functional, cell-based; settings: time 12-18 hrs
T-24 [17] = experiment: Induction of apoptosis in human T24 cells assessed as up regulation of SQSTM1 gene expression at 6 uM measured after 12 to 18 hrs by transcriptome analysis; assay type: functional, cell-based; settings: time 12-18 hrs
T-24 [18] = experiment: Induction of autophagy in human T24 cells assessed as effect on RAB24 gene expression at 6 uM measured after 12 to 18 hrs by transcriptome analysis; assay type: functional, cell-based; settings: time 12-18 hrs
T-24 [19] = experiment: Effect on MSH2 expression in human T24 cells at 6 uM measured after 24 to 30 hrs by proteomic analysis; assay type: functional, cell-based; settings: time 24-30 hrs
T-24 [20] = experiment: Up regulation of SLC7A11 expression in human T24 cells at 6 uM measured after 24 to 30 hrs by proteomic analysis; assay type: functional, cell-based; settings: time 24-30 hrs
T-24 [21] = experiment: Effect on HLTF expression in human T24 cells at 6 uM measured after 24 to 30 hrs by proteomic analysis; assay type: functional, cell-based; settings: time 24-30 hrs
T-24 [22] = experiment: Induction of autophagy in human T24 cells assessed as effect on LGALS8 gene expression at 6 uM measured after 12 to 18 hrs by transcriptome analysis; assay type: functional, cell-based; settings: time 12-18 hrs
T-24 [23] = experiment: Antimigratory activity against human T24 cells assessed as down regulation of PALLD expression at 6 uM measured after 24 to 30 hrs by proteomic analysis; assay type: functional, cell-based; settings: time 24-30 hrs
T-24 [24] = experiment: Effect on CDKN3 expression in human T24 cells at 6 uM measured after 24 to 30 hrs by proteomic analysis; assay type: functional, cell-based; settings: time 24-30 hrs
T-24 [25] = experiment: Induction of apoptosis in human T24 cells assessed as effect on TRIAP1 expression at 6 uM measured after 24 to 30 hrs by proteomic analysis; assay type: functional, cell-based; settings: time 24-30 hrs
T-24 [26] = experiment: Effect on PDCD2L expression in human T24 cells at 6 uM measured after 24 to 30 hrs by proteomic analysis; assay type: functional, cell-based; settings: time 24-30 hrs
[27] = Toxicity in human T24 cells xenografted BALB/c mouse assessed as effect on body weight at 2 mg/kg, ip administered at 2 days interval; assay type: organism-based, T-24; settings: in vivo, 48 h
T-24 [28] = experiment: Induction of autophagy in human T24 cells assessed as effect on OPTN gene expression at 12 to 18 uM measured after 24 to 30 hrs by analysis; assay type: functional, cell-based; settings: dose 12-18 µM, time 24-30 hrs
T-24 [29] = experiment: Effect on MDC1 expression in human T24 cells at 6 uM measured after 24 to 30 hrs by proteomic analysis; assay type: functional, cell-based; settings: time 24-30 hrs
T-24 [30] = experiment: Inhibition of DNA replication in human T24 cells at 4 to 10 uM measured after 24 hrs by EdU staining based fluorescence assay; assay type: functional, cell-based; settings: dose 4-10 µM
T-24 [31] = experiment: Antitumor activity against human T24 cells xenografted in BALB/c mouse assessed as reduction in Ki67 expression at 2 mg/kg, ip administered at 2 days interval by immunohistochemical analysis; assay type: functional, organism-based
T-24 [32] = experiment: Up regulation of SLC7A11 gene expression in human T24 cells at 6 uM measured after 12 to 18 hrs by transcriptome analysis; assay type: functional, cell-based; settings: time 12-18 hrs
T-24 [33] = experiment: Induction of apoptosis in human T24 cells assessed as up regulation of HMOX1 expression at 6 to 12 uM measured after 24 to 30 hrs by Western blot analysis; assay type: functional, cell-based; settings: dose 6-12 µM, time 24-30 hrs
T-24 [34] = experiment: Antitumor activity against human T24 cells xenografted in BALB/c mouse assessed as reduction in tumor weight at 2 mg/kg, ip administered at 2 days interval; assay type: functional, organism-based
T-24 [35] = experiment: Induction of apoptosis in human T24 cells assessed as early apoptotic cells at 8 uM measured after 48 hrs by Annexin V-FITC/propidium iodide staining based flow cytometry (reference value: 1.2%); assay type: functional
T-24 [36] = experiment: Induction of mitochondrial membrane potential loss in human T24 cells at 8 to 16 uM measured after 24 hrs by JC1 dye based fluorescence assay; assay type: functional, cell-based; settings: dose 8-16 µM
T-24 [37] = experiment: Effect on POLD3 expression in human T24 cells at 6 uM measured after 24 to 30 hrs by proteomic analysis; assay type: functional, cell-based; settings: time 24-30 hrs
SW780 = experiment: Cytotoxicity against human SW780 cells assessed as reduction in cell growth by CCK8 assay; assay type: functional, cell-based
T-24 [38] = experiment: Effect on CLSPN expression in human T24 cells at 6 uM measured after 24 to 30 hrs by proteomic analysis; assay type: functional, cell-based; settings: time 24-30 hrs

Question: For `C=C1C(=O)[C@]23C[C@H]1C[C@@H](O)[C@H]2[C@@]12CO[C@@H](O)[C@@H]1C(C)(C)CC[C@@H]2OC3=O` [NODOSIN], which Activity (T-24 [1]) is on record?
Answer: Its Activity is “Active”.

Question: And the Activity (T-24 [2])?
Answer: The Activity was “Active”.

Question: And the Activity (T-24 [3])?
Answer: The Activity was 0.35%.

Question: What about the Activity (T-24 [4]) of the same molecule?
Answer: The Activity was “Active”.

Question: What about the Activity (T-24 [5]) of the same molecule?
Answer: Its Activity is “Active”.

Question: And the Activity (T-24 [6])?
Answer: The Activity was “Active”.

Question: And the Activity (T-24 [7])?
Answer: Its Activity is “Active”.

Question: And the IC50 (T-24 [8])?
Answer: Its IC50 is 4.91 µM.

Question: What about the Activity (T-24 [8]; DDE = dose-dependent effect) of the same molecule?
Answer: Its Activity is “Dde”.

Question: And the Activity (T-24 [9])?
Answer: Its Activity is “Active”.

Question: What about the Activity (T-24 [10]) of the same molecule?
Answer: The Activity was “Active”.

Question: And the Activity (T-24 [11])?
Answer: Its Activity is “Active”.

Question: And the Activity (T-24 [12])?
Answer: Its Activity is “Active”.

Question: What about the Activity (T-24 [13]) of the same molecule?
Answer: The Activity was “Active”.

Question: And the Activity (UMUC3)?
Answer: Its Activity is “Tde”.

Question: And the Activity (T-24 [14])?
Answer: Its Activity is “Dde”.

Question: What about the Activity (T-24 [15]) of the same molecule?
Answer: Its Activity is “Active”.

Question: And the Activity (T-24 [16])?
Answer: The Activity was “Active”.

Question: What about the Activity (T-24 [17]) of the same molecule?
Answer: The Activity was “Active”.

Question: What about the Activity (T-24 [18]) of the same molecule?
Answer: Its Activity is “Active”.

Question: What about the Activity (T-24 [19]) of the same molecule?
Answer: Its Activity is “Active”.

Question: What about the Activity (T-24 [20]) of the same molecule?
Answer: Its Activity is “Active”.

Question: What about the Activity (T-24 [21]) of the same molecule?
Answer: The Activity was “Active”.

Question: What about the Activity (T-24 [22]) of the same molecule?
Answer: The Activity was “Active”.

Question: And the Activity (T-24 [23])?
Answer: The Activity was “Active”.

Question: And the Activity (T-24 [24])?
Answer: Its Activity is “Active”.

Question: And the Activity (T-24 [25])?
Answer: The Activity was “Active”.

Question: And the Activity (T-24 [26])?
Answer: Its Activity is “Active”.

Question: And the Activity [27]?
Answer: Its Activity is “Non-Toxic”.

Question: What about the Activity (T-24 [28]) of the same molecule?
Answer: Its Activity is “Active”.

Question: And the Activity (T-24 [29])?
Answer: Its Activity is “Active”.

Question: What about the inhibition (T-24 [30]) of the same molecule?
Answer: The inhibition was “Active”.

Question: And the Activity (T-24 [31])?
Answer: The Activity was “Active”.

Question: And the Activity (T-24 [32])?
Answer: The Activity was “Active”.

Question: What about the Activity (T-24 [33]) of the same molecule?
Answer: The Activity was “Active”.

Question: And the Activity (T-24 [34])?
Answer: The Activity was “Active”.

Question: And the Activity (T-24 [35])?
Answer: The Activity was 10.54%.

Question: What about the Activity (T-24 [36]) of the same molecule?
Answer: Its Activity is “Active”.

Question: What about the Activity (T-24 [37]) of the same molecule?
Answer: The Activity was “Active”.

Question: And the IC50 (SW780)?
Answer: The IC50 was 9.99 µM.

Question: What about the Activity (SW780; DDE = dose-dependent effect) of the same molecule?
Answer: The Activity was “Dde”.

Question: And the Activity (T-24 [38])?
Answer: Its Activity is “Active”.
